In the first experiment the target is human MGAT-2 (Homo sapiens (Human), UniProt Q3SYC2). Kind of experiment: MGAT LCMS assay (h-MGAT LCMS). The following applies: human MGAT2. The experiment is classed as biochemical. How it is done:
The MGAT enzyme reactions were performed in Corning FALCON® 96-well polypropylene plates, in a total volume of 60 μL of 50 mM potassium phosphate buffer pH 7.4, containing a final concentration of 100 μM 2-oleoylglycerol, 15 μM oleoyl-coenzyme A and 0.0013 μg/μL human or mouse MGAT-2 or 0.0026 μg/μL rat recombinant MGAT-2 membranes expressed in Sf9 cells. Assay plates were run through a fully automated robotics system and shaken for 5 seconds every minute for a total 10 minutes. The reactions were then quenched with 120 μL of ice cold methanol containing 1 μg/mL 1,2-distearoyl-rac-glycerol as the internal standard. Plates were shaken for 2 minutes and spun down to remove protein precipitation. After the spin, samples were transferred to LC/MS compatible PCR plates. For LC/MS analysis, a ThermoFisher Surveyor pump, utilizing a Waters […]® C8, 50×2.1 mm column, was used for the chromatography of enzyme products. The buffer system consists of 0.1% formic acid in water with a mobile phase consisting 0.1% formic acid in methanol. The shallow gradient is 90-100% mobile phase in 0.2 min with a total run time of 2.3 min. The first 0.5 minutes of each injection was diverted to waste to eliminate the presence of phosphate buffer in the enzymatic reaction. The column was run at 0.6 mL/min and a temperature of 65° C. Mass spectrometry analysis of the samples was performed on a ThermoFisher Quantum Triple quad utilizing APCI (+) as the mode of ionization. Data was acquired in Single Ion Monitoring (SIM) mode analyzing Diolein=m/z 603.6 (PRODUCT) and 1,2-distearoyl-rac-glycerol (IS)=m/z 607.6. The ratio of Diolein to internal standard (Peak Area Ratio) is utilized to calculate IC50 values.
“NT” denotes “Not tested”.
Chain of human MGAT-2 (Q3SYC2 whole entry): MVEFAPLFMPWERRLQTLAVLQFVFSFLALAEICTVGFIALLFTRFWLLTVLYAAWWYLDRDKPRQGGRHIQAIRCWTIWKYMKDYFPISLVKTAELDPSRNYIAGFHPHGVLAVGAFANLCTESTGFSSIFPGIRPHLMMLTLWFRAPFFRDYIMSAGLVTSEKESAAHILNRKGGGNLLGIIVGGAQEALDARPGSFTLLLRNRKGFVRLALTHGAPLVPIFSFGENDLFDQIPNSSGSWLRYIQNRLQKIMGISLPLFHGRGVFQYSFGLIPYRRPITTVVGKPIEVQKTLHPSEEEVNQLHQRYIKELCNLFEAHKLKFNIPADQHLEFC
The term IC50 denotes the concentration at which inhibition is half-maximal. Low readings indicate greater potency, high ones weaker potency. Compound `Cc1csc(C2=C(c3nnn[nH]3)C(=O)N[C@@](c3ccc(OCCCC(F)(F)F)cc3)(C(F)(F)F)C2)c1` [Example 10] displayed an IC50 of 2 to 10 µM.

The experiment is the same for the next values; noted with them: human MGAT2 membranes expressed in Sf9 cells; 100 μM 2-oleoylglycerol, 15 μM oleoyl-coenzyme A.
Compound `O=C1N[C@@](c2ccc(OCCCC(F)(F)F)cc2)(C(F)(F)F)CC(c2ccc(C3CC3)s2)=C1c1nnn[nH]1` [Example 1, (S)-4-(5-Cyclopropylthiophen-2-yl)-3-(1H-tetrazol-5-yl)-6-(4-(4,4,4-trifluorobutoxy)phenyl)-6-(trifluoromethyl)-5,6-dihydropyridin-2(1H)-one] came in with an IC50 of 0.0025 µM.
Consider `Cc1ccc(C2=C(c3nnn[nH]3)C(=O)N[C@@](c3ccc(OCCCC(F)(F)F)cc3)(C(F)(F)F)C2)s1` [Example 2], for which half-maximal inhibition (IC50) was put at 0.041 µM. Compared with the last compound, the IC50 is about 16-fold higher.
`O=C1N[C@@](c2ccc(OCCCC(F)(F)F)cc2)(C(F)(F)F)CC(c2ccc(Cl)s2)=C1c1nnn[nH]1` [Example 3] came in with a concentration for half-maximal inhibition (IC50) of 0.37 µM.
In turn, `CCCCCCC#C[C@]1(C(F)(F)F)CC(c2ccc(Cl)s2)=C(c2nnn[nH]2)C(=O)N1` [Example 5] came in with a half-maximal inhibitory concentration (IC50) of 0.0078 µM.
`CCCCCCC#C[C@]1(C(F)(F)F)CC(c2ccc(Br)s2)=C(c2nnn[nH]2)C(=O)N1` [Example 6] gave an IC50 of 0.0022 µM.
On the same count and under the same terms, then `O=C1N[C@@](c2ccc(OCCCC(F)(F)F)cc2)(C(F)(F)F)CC(c2cc3ccccc3s2)=C1c1nnn[nH]1` [Example 7], with 0.009 µM; and `CCc1ccc(C2=C(c3nnn[nH]3)C(=O)N[C@@](c3ccc(OCCCC(F)(F)F)cc3)(C(F)(F)F)C2)s1` [Example 9], with 0.032 µM.
Regarding `Cc1ccsc1C1=C(c2nnn[nH]2)C(=O)N[C@@](c2ccc(OCCCC(F)(F)F)cc2)(C(F)(F)F)C1` [Example 11], 0.873 µM corresponded to half-maximal inhibition (IC50).
Still for that read-out and setting: next, `CN(C)Cc1ccc(C2=C(c3nnn[nH]3)C(=O)N[C@@](c3ccc(OCCCC(F)(F)F)cc3)(C(F)(F)F)C2)s1` [Example 12]: 0.363 µM.
On the same count and under the same terms, then `Cc1cnc(C2=C(c3nnn[nH]3)C(=O)N[C@@](c3ccc(OCCCC(F)(F)F)cc3)(C(F)(F)F)C2)s1` [Example 13], with 0.0194 µM; and `CN(C)c1ccc(C2=C(c3nnn[nH]3)C(=O)N[C@@](c3ccc(OCCCC(F)(F)F)cc3)(C(F)(F)F)C2)cn1` [Example 14], with 0.0721 µM; and `O=C1N[C@@](c2ccc(OCCCCCC(F)(F)F)cc2F)(C(F)(F)F)CC(c2cnn(C3CC3)c2)=C1c1nnn[nH]1` [Example 15], with 0.0145 µM.
`O=C1N[C@@](c2ccc(OCCCCCC(F)(F)F)cc2F)(C(F)(F)F)CC(c2ccn(C3CC3)n2)=C1c1nnn[nH]1` [Example 16] gave a half-inhibitory concentration (IC50) of 0.034 µM.
Same read-out and setting: next, `O=C1N[C@@](c2ccc(OCCCC(F)(F)F)cc2)(C(F)(F)F)CC(c2ccn(C3CC3)n2)=C1c1nnn[nH]1` [Example 17]: 0.0166 µM; `O=C1N[C@@](c2ccc(OCCCC(F)(F)F)cc2)(C(F)(F)F)CC(c2cnn(C3CC3)c2)=C1c1nnn[nH]1` [Example 18]: 0.0245 µM; `O=C1N[C@@](c2ccc(OCCCC(F)(F)F)cc2)(C(F)(F)F)CC(c2ccn(CC3CC3)n2)=C1c1nnn[nH]1` [Example 19]: 0.0318 µM.
Same read-out and setting: next, `O=C1N[C@@](c2ccc(OCCCC(F)(F)F)cc2)(C(F)(F)F)CC(c2ccn(C3CCC3)n2)=C1c1nnn[nH]1` [Example 20]: 0.0747 µM.
As to `O=C1N[C@@](c2ccc(OCCCC(F)(F)F)cc2)(C(F)(F)F)CC(c2ccn(CC3CCC3)n2)=C1c1nnn[nH]1` [Example 21], it took 0.135 µM to reach half-maximal inhibition (IC50).
On the same count and under the same terms, then `O=C1N[C@@](c2ccc(CCCCC(F)(F)F)cc2)(C(F)(F)F)CC(c2ccn(CC3CC3)n2)=C1c1nnn[nH]1` [Example 22], with 0.0012 µM; and `CC(C)n1ccc(C2=C(c3nnn[nH]3)C(=O)N[C@@](c3ccc(CCCCC(F)(F)F)cc3)(C(F)(F)F)C2)n1` [Example 23], with 0.0021 µM.
For the compound `O=C1N[C@@](c2ccc(CCCCC(F)(F)F)cc2)(C(F)(F)F)CC(c2ccn(C3CC3)n2)=C1c1nnn[nH]1` [Example 24], it took 0.0229 µM to reach half-maximal inhibition (IC50). This IC50 lies about 11-fold higher than the previous one.
Take `O=C1N[C@@](c2ccc(OCCCCCC(F)(F)F)cc2)(C(F)(F)F)CC(c2ccn(C3CC3)n2)=C1c1nnn[nH]1` [Example 25]: 0.102 µM corresponded to half-maximal inhibition (IC50). Against the preceding compound, the IC50 is about 4.5-fold higher.
For the compound `CC(C)n1ccc(C2=C(c3nnn[nH]3)C(=O)N[C@@](c3ccc(OCCCCCC(F)(F)F)cc3)(C(F)(F)F)C2)n1` [Example 26], inhibition was half-maximal at 0.0437 µM (IC50).
Still for that read-out and setting: next, `CC(C)(C)n1ccc(C2=C(c3nnn[nH]3)C(=O)N[C@@](c3ccc(OCCCCCC(F)(F)F)cc3)(C(F)(F)F)C2)n1` [Example 27]: 0.185 µM.
Same read-out and setting: then `CN(C)c1ccc(C2=C(c3nnn[nH]3)C(=O)N[C@@](c3ccc(OCCCC(F)(F)F)cc3)(C(F)(F)F)C2)nc1` [Example 28], with 0.0176 µM; and `CCn1ccc(C2=C(c3nnn[nH]3)C(=O)N[C@@](c3ccc(OCCCCCC(F)(F)F)cc3)(C(F)(F)F)C2)n1` [Example 29], with 0.0521 µM; and `O=C1N[C@@](c2ccc(OCCCCCC(F)(F)F)cc2)(C(F)(F)F)CC(c2ccn(CC3CC3)n2)=C1c1nnn[nH]1` [Example 30], with 0.0027 µM.
Same read-out and setting: then `CC(C)Cn1ccc(C2=C(c3nnn[nH]3)C(=O)N[C@@](c3ccc(OCCCCCC(F)(F)F)cc3)(C(F)(F)F)C2)n1` [Example 31], with 0.0619 µM; and `CC(C)n1nc(C2=C(c3nnn[nH]3)C(=O)N[C@@](c3ccc(OCCCCCC(F)(F)F)cc3)(C(F)(F)F)C2)c2ccccc21` [Example 33], with 0.95 µM; and `CC(C)n1cc(C2=C(c3nnn[nH]3)C(=O)N[C@@](c3ccc(OCCCCCC(F)(F)F)cc3)(C(F)(F)F)C2)c2ccccc21` [Example 34], with 0.0869 µM.
The compound `CN(C)c1cnc(C2=C(c3nnn[nH]3)C(=O)N[C@@](c3ccc(OCCCC(F)(F)F)cc3)(C(F)(F)F)C2)s1` [Example 35] had an IC50 of 0.0115 µM.
`Cc1cnc(C2=C(c3nnn[nH]3)C(=O)N[C@@](c3ccc(OCCCC(F)(F)F)cc3)(C(F)(F)F)C2)nc1` [Example 38]: it took 0.0343 µM to reach half-maximal inhibition (IC50).
Same read-out and setting: then `CC(C)n1ccc(C2=C(c3nnn[nH]3)C(=O)N[C@@](c3ccc(OCCCC(F)(F)F)cc3F)(C(F)(F)F)C2)n1` [Example 39], with 0.0166 µM; and `O=C1N[C@@](c2ccc(OCCCC(F)(F)F)cc2F)(C(F)(F)F)CC(c2ccn(C3CCC3)n2)=C1c1nnn[nH]1` [Example 40], with 0.0067 µM; and `O=C1N[C@@](c2ccc(OCCCC(F)(F)F)cc2F)(C(F)(F)F)CC(c2ccn(C3CC3)n2)=C1c1nnn[nH]1` [Example 41], with 0.0736 µM.
Turning to `O=C1N[C@@](c2ccc(CCCCC(F)(F)F)cc2F)(C(F)(F)F)CC(c2ccn(CC3CC3)n2)=C1c1nnn[nH]1` [Example 42], half-maximal inhibition (IC50) was put at 0.003 µM.
In the case of `CCn1ccc(C2=C(c3nnn[nH]3)C(=O)N[C@@](c3ccc(OCCCC(F)(F)F)cc3F)(C(F)(F)F)C2)n1` [Example 43], the IC50 was 0.0202 µM. Compared with the last compound, the IC50 is about 6.7-fold higher.
The same measure, in the same setting: then `O=C1N[C@@](c2ccc(OCCCCC(F)(F)F)cc2)(C(F)(F)F)CC(c2ccc(C3CC3)s2)=C1c1nnn[nH]1` [Example 44], with 0.0152 µM; and `CN(C)c1cnc(C2=C(c3nnn[nH]3)C(=O)N[C@@](c3ccc(OCCCCC(F)(F)F)cc3)(C(F)(F)F)C2)s1` [Example 45], with 0.0035 µM.
Still for that read-out and setting: then `CC(C)n1ccc(C2=C(c3nnn[nH]3)C(=O)N[C@@](c3ccc(CCCCC(F)(F)F)cc3F)(C(F)(F)F)C2)n1` [Example 46], with 0.0114 µM.
On the same count and under the same terms, then `O=C1N[C@@](c2ccc(CCCCC(F)(F)F)cc2F)(C(F)(F)F)CC(c2ccn(C3CCC3)n2)=C1c1nnn[nH]1` [Example 47], with 0.0027 µM; and `CCn1ccc(C2=C(c3nnn[nH]3)C(=O)N[C@@](c3ccc(CCCCC(F)(F)F)cc3F)(C(F)(F)F)C2)n1` [Example 49], with 0.0045 µM.
As for `CC(C)Cn1ccc(C2=C(c3nnn[nH]3)C(=O)N[C@@](c3ccc(CCCCC(F)(F)F)cc3F)(C(F)(F)F)C2)n1` [Example 50], the 50% inhibitory concentration (IC50) was found to be 0.0094 µM.
As to `CC(C)Cn1ccc(C2=C(c3nnn[nH]3)C(=O)N[C@@](c3ccc(OCCCC(F)(F)F)cc3F)(C(F)(F)F)C2)n1` [Example 51], the IC50 came out at 0.0974 µM.
On the same count and under the same terms, then `O=C1N[C@@](c2ccc(OCCCC(F)(F)F)cc2F)(C(F)(F)F)CC(c2ccn(CC3CC3)n2)=C1c1nnn[nH]1` [Example 52], with 0.0032 µM.
Still for that read-out and setting: then `O=C1N[C@@](c2ccc(OCCCC(F)(F)F)cc2F)(C(F)(F)F)CC(c2ccn(CC3CCC3)n2)=C1c1nnn[nH]1` [Example 53], with 0.044 µM.
Turning to `O=C1N[C@@](c2ccc(OCCCC(F)(F)F)cc2Cl)(C(F)(F)F)CC(c2ccc(C3CC3)s2)=C1c1nnn[nH]1` [Example 56], the IC50 turned out to be 0.0002 µM.
`COc1cc(OCCCC(F)(F)F)ccc1[C@]1(C(F)(F)F)CC(c2ccc(C3CC3)s2)=C(c2nnn[nH]2)C(=O)N1` [Example 57] had an IC50 of 0.0014 µM.
The same measure, in the same setting: next, `CCc1ccc(C2=C(c3nnn[nH]3)C(=O)N[C@@](c3ccc(OCCCCCC(F)(F)F)cc3)(C(F)(F)F)C2)s1` [Example 58]: 0.0022 µM.
`O=C1N[C@@](c2ccc(OCCCC(F)(F)F)cc2F)(C(F)(F)F)CC(c2ncc(C3CC3)s2)=C1c1nnn[nH]1` [Example 59] yielded an IC50 of 0.0014 µM.
